Measurements from patent US12201656B2, “Selection of bacterial strains useful in allergy treatment” (BioGaia AB, priority 2016, dated 2025).

Tested on: phosphorylated PKC (pPKC)
Assay: Mouse enteroid experiment, pPKC Western blot
Type: cell-based
Conditions: DGK inhibitor 2 μM in the presence of wild-type L. reuteri PTA-6475 conditioned media, 45 min
Experimental: FIGS. 5a and 5b illustrate that a commercially available DagK inhibitor (DGK inhi) prevents L. reuteri derived-DagK mediated protein kinase C (PKC) phosphorylation in mouse enteroids. FIG. 5a illustrates a Western blot analysis showing proteins isolated from mouse ileal enteroids of 10 week-old germ free (GF) male mice treated with only media control (LDM-4), WT Lr (WT Lr grown in LDM4), DagK inhibitor and DagK inhibitor with WT Lr for 45 min targeting mammalian phosphorylated PKC (pPKC). 10 μg proteins were loaded into each well of an SDS gel. The pPKC synthesis ratio was obtained by image-J analysis where pPKC of […] was set to 1 and used as baseline. FIG. 5b Mean values of n=3 showing pPKC protein concentration (loaded 10 μg) and quantified by densitometry using image-J. GF control groups were set to 1. *P<0.05, **P<0.01, ***P<0.001. n=10 mice per group. One-Way analysis of variance with Bonferroni correction.
Mouse enteroids (contains only intestinal epithelial layer) were derived from 10 week-old germ free (GF) BALB/c mouse. The enteroids were grown to form a monolayer and were induced with LDM4 media (control), wild-type L. reuteri PTA-6475 conditioned media (50 to 3 kDa cut off), diacylglycerol kinase (DGK) inhibitor (2 μM) only or DGK inhibitor (2 μM) with wild-type L. reuteri PTA-6475 conditioned media (CM; 50 to 3 kDa cut off). […]

Cc1nc2sccn2c(=O)c1CCN1CCC(=C(c2ccccc2)c2ccc(F)cc2)CC1 [DGK inhibitor, 6-[2-(4-[(4-fluorophenyl)phenylmethylene]-1-piperidinyl)ethyl]-7-methyl-5H-thiazolo-[3,2-a]pyrimidine-5-one]
PKC phosphorylation: increased PKC phosphorylation
